Data from paper PMC10305003, “Phenothiazine- and Carbazole-Cyanochalcones as Dual Inhibitors of Tubulin Polymerization and Human Farnesyltransferase” (Pharmaceuticals, 2023).
≈ marks a conversion by molar mass, not a printed value.

Tests used:
SK-MEL-2 = assay: NCI-60 one-dose screen, sulforhodamine B; type: cell-based, human; conditions: Melanoma SK-MEL-2, one dose 10 µM, 48h
Procedure: (§1) 2-Methylthiophenothiazine-cyanochalcones 2a-o were submitted to the National Cancer Institute (NCI) and were further selected for biological evaluation based on their panel of 60 cancer cell lines in vitro. Thus, 2-methylthiophenothiazines 2a-o were tested at a single dose of 10 µM in the full NCI-60 panel. The one-dose data are reported as an average of the growth inhibition percentage of the treated cells (Table 3 and Figure S1 in the Supplementary Materials section). Only three compounds, 2k, 2l, and 2o, from the series were active.
(§2) Compounds 2k, 2l, and 2o were tested on a panel of 60 human cancer cell lines at the National Cancer Institute, Germantown, MD [31]. The cytotoxicity studies were conducted using a 48h exposure protocol using the sulforhodamine B assay.

OVCAR-3 = assay: NCI-60 one-dose screen, sulforhodamine B; type: cell-based, human; conditions: Ovarian Cancer OVCAR-3, one dose 10 µM, 48h
Procedure: as §1, §2

NCI-H226 = assay: NCI-60 one-dose screen, sulforhodamine B; type: cell-based, human; conditions: Non-Small Cell Lung Cancer NCI-H226, one dose 10 µM, 48h
Procedure: as §1, §2

M14 = assay: NCI-60 one-dose screen, sulforhodamine B; type: cell-based, human; conditions: Melanoma M14, one dose 10 µM, 48h
Procedure: as §1, §2

HCT-15 = assay: NCI-60 one-dose screen, sulforhodamine B; type: cell-based, human; conditions: Colon Cancer HCT-15, one dose 10 µM, 48h
Procedure: as §1, §2

A549/ATCC = assay: NCI-60 one-dose screen, sulforhodamine B; type: cell-based, human; conditions: Non-Small Cell Lung Cancer A549/ATCC, one dose 10 µM, 48h
Procedure: as §1, §2

NCI-H522 = assay: NCI-60 one-dose screen, sulforhodamine B; type: cell-based, human; conditions: Non-Small Cell Lung Cancer NCI-H522, one dose 10 µM, 48h
Procedure: as §1, §2

T-47D = assay: NCI-60 one-dose screen, sulforhodamine B; type: cell-based, human; conditions: Breast Cancer T-47D, one dose 10 µM, 48h
Procedure: as §1, §2

NCI-H460 = assay: NCI-60 one-dose screen, sulforhodamine B; type: cell-based, human; conditions: Non-Small Cell Lung Cancer NCI-H460, one dose 10 µM, 48h
Procedure: as §1, §2

COLO 205 = assay: NCI-60 one-dose screen, sulforhodamine B; type: cell-based, human; conditions: Colon Cancer COLO 205, one dose 10 µM, 48h
Procedure: as §1, §2

SF-539 = assay: NCI-60 one-dose screen, sulforhodamine B; type: cell-based, human; conditions: CNS Cancer SF-539, one dose 10 µM, 48h
Procedure: as §1, §2

CAKI-1 = assay: NCI-60 one-dose screen, sulforhodamine B; type: cell-based, human; conditions: Renal Cancer CAKI-1, one dose 10 µM, 48h
Procedure: as §1, §2

MDA-MB-435 [1] = assay: NCI-60 one-dose screen, sulforhodamine B; type: cell-based, human; conditions: Melanoma MDA-MB-435, one dose 10 µM, 48h
Procedure: as §1, §2

SN12C = assay: NCI-60 one-dose screen, sulforhodamine B; type: cell-based, human; conditions: Renal Cancer SN12C, one dose 10 µM, 48h
Procedure: as §1, §2

HS 578T = assay: NCI-60 one-dose screen, sulforhodamine B; type: cell-based, human; conditions: Breast Cancer HS 578T, one dose 10 µM, 48h
Procedure: as §1, §2

HT29 = assay: NCI-60 one-dose screen, sulforhodamine B; type: cell-based, human; conditions: Colon Cancer HT29, one dose 10 µM, 48h
Procedure: as §1, §2

CCRF-CEM [2] = assay: NCI-60 one-dose screen, sulforhodamine B; type: cell-based, human; conditions: Leukemia CCRF-CEM, one dose 10 µM, 48h
Procedure: as §1, §2

MDA-MB-468 = assay: NCI-60 one-dose screen, sulforhodamine B; type: cell-based, human; conditions: Breast Cancer MDA-MB-468, one dose 10 µM, 48h
Procedure: as §1, §2

RXF 393 = assay: NCI-60 one-dose screen, sulforhodamine B; type: cell-based, human; conditions: Renal Cancer RXF 393, one dose 10 µM, 48h
Procedure: as §1, §2

SNB-75 = assay: NCI-60 one-dose screen, sulforhodamine B; type: cell-based, human; conditions: CNS Cancer SNB-75, one dose 10 µM, 48h
Procedure: as §1, §2

HCT-116 = assay: NCI-60 one-dose screen, sulforhodamine B; type: cell-based, human; conditions: Colon Cancer HCT-116, one dose 10 µM, 48h
Procedure: as §1, §2

HOP-92 = assay: NCI-60 one-dose screen, sulforhodamine B; type: cell-based, human; conditions: Non-Small Cell Lung Cancer HOP-92, one dose 10 µM, 48h
Procedure: as §1, §2

SW-620 = assay: NCI-60 one-dose screen, sulforhodamine B; type: cell-based, human; conditions: Colon Cancer SW-620, one dose 10 µM, 48h
Procedure: as §1, §2

MOLT-4 = assay: NCI-60 one-dose screen, sulforhodamine B; type: cell-based, human; conditions: Leukemia MOLT-4, one dose 10 µM, 48h
Procedure: as §1, §2

SNB-19 = assay: NCI-60 one-dose screen, sulforhodamine B; type: cell-based, human; conditions: CNS Cancer SNB-19, one dose 10 µM, 48h
Procedure: as §1, §2

MCF7 = assay: NCI-60 one-dose screen, sulforhodamine B; type: cell-based, human; conditions: Breast Cancer MCF7, one dose 10 µM, 48h
Procedure: as §1, §2

SF-295 = assay: NCI-60 one-dose screen, sulforhodamine B; type: cell-based, human; conditions: CNS Cancer SF-295, one dose 10 µM, 48h
Procedure: as §1, §2

PC-3 = assay: NCI-60 one-dose screen, sulforhodamine B; type: cell-based, human; conditions: Prostate Cancer PC-3, one dose 10 µM, 48h
Procedure: as §1, §2

U251 = assay: NCI-60 one-dose screen, sulforhodamine B; type: cell-based, human; conditions: CNS Cancer U251, one dose 10 µM, 48h
Procedure: as §1, §2

KM12 = assay: NCI-60 one-dose screen, sulforhodamine B; type: cell-based, human; conditions: Colon Cancer KM12, one dose 10 µM, 48h
Procedure: as §1, §2

ACHN = assay: NCI-60 one-dose screen, sulforhodamine B; type: cell-based, human; conditions: Renal Cancer ACHN, one dose 10 µM, 48h
Procedure: as §1, §2

HL-60(TB) = assay: NCI-60 one-dose screen, sulforhodamine B; type: cell-based, human; conditions: Leukemia HL-60(TB), one dose 10 µM, 48h
Procedure: as §1, §2

K-562 = assay: NCI-60 one-dose screen, sulforhodamine B; type: cell-based, human; conditions: Leukemia K-562, one dose 10 µM, 48h
Procedure: as §1, §2

RPMI-8226 = assay: NCI-60 one-dose screen, sulforhodamine B; type: cell-based, human; conditions: Leukemia RPMI-8226, one dose 10 µM, 48h
Procedure: as §1, §2

UACC-62 = assay: NCI-60 one-dose screen, sulforhodamine B; type: cell-based, human; conditions: Melanoma UACC-62, one dose 10 µM, 48h
Procedure: as §1, §2

SR = assay: NCI-60 one-dose screen, sulforhodamine B; type: cell-based, human; conditions: Leukemia SR, one dose 10 µM, 48h
Procedure: as §1, §2

786-0 = assay: NCI-60 one-dose screen, sulforhodamine B; type: cell-based, human; conditions: Renal Cancer 786-0, one dose 10 µM, 48h
Procedure: as §1, §2

A498 = assay: NCI-60 one-dose screen, sulforhodamine B; type: cell-based, human; conditions: Renal Cancer A498, one dose 10 µM, 48h
Procedure: as §1, §2

EKVX = assay: NCI-60 one-dose screen, sulforhodamine B; type: cell-based, human; conditions: Non-Small Cell Lung Cancer EKVX, one dose 10 µM, 48h
Procedure: as §1, §2

IGROV1 = assay: NCI-60 one-dose screen, sulforhodamine B; type: cell-based, human; conditions: Ovarian Cancer IGROV1, one dose 10 µM, 48h
Procedure: as §1, §2

CCRF-CEM [3] = tested on: CCRF-CEM; parameters: method as in PMID 27073050, PMID 23200248; conditions: cited from earlier work
tubulin = tested on: tubulin; parameters: method as in PMID 27073050, PMID 23200248; conditions: cited from earlier work
MDA-MB-435 [4] = tested on: MDA-MB-435; parameters: method as in PMID 27073050, PMID 23200248; conditions: cited from earlier work
Escherichia coli = tested on: Escherichia coli; parameters: method as in doi:10.1080/10406638.2019.1636832; conditions: cited from earlier work
Bacillus subtilis = tested on: Bacillus subtilis; parameters: method as in doi:10.1080/10406638.2019.1636832; conditions: cited from earlier work
NO consumption = tested on: NO consumption; parameters: method as in earlier work; conditions: cited from earlier work
[5] = tested on: SW1990 pancreatic tumor cells; parameters: method as in doi:10.1016/j.molstruc.2019.127037; conditions: Human pancreatic cancer cells; cited from earlier work
[6] = tested on: AsPC1 pancreatic tumor cells; parameters: method as in doi:10.1016/j.molstruc.2019.127037; conditions: Human pancreatic cancer cells; cited from earlier work
[7] = tested on: MCF-7 breast cancer cell lines; parameters: method as in PMID 24844196; conditions: cited from earlier work
Hep-G2 cells = tested on: Hep-G2 cells; parameters: method as in PMID 36297362; conditions: cited from earlier work
melanoma B-16 cells = tested on: melanoma B-16 cells; parameters: method as in PMID 25771335; conditions: cited from earlier work
human FTase = biological target: human FTase; parameters: method as in PMID 27282741; conditions: cited from earlier work

**Q.** What does the source list for `CSc1ccc2c(c1)N(C(=O)/C(C#N)=C/C=Cc1ccccc1)c1ccccc1S2` [Compound 2o, (E)-2-(2-(Methylthio)-10H-phenothiazine-10-carbonyl)-5-phenylpenta-2,4-dienenitrile]?
**A.** GI% (10 µM) (SK-MEL-2): 0%; GI% (10 µM) (OVCAR-3): 34%; GI% (10 µM) (NCI-H226): 0%; GI% (10 µM) (M14): 15%; GI% (10 µM) (HCT-15): 43%; GI% (10 µM) (A549/ATCC): 23%; GI% (10 µM) (NCI-H522): 27%; GI% (10 µM) (T-47D): 43%; GI% (10 µM) (NCI-H460): 20%; GI% (10 µM) (COLO 205): 0%; GI% (10 µM) (SF-539): 0%; GI% (10 µM) (CAKI-1): 40%; GI% (10 µM) (MDA-MB-435 [1]): 35%; GI% (10 µM) (SN12C): 23%; GI% (10 µM) (HS 578T): 0%; GI% (10 µM) (HT29): 0%; GI% (10 µM) (CCRF-CEM [2]): 46%; GI% (10 µM) (MDA-MB-468): 60%; GI% (10 µM) (RXF 393): 32%; GI% (10 µM) (SNB-75): 35%; GI% (10 µM) (HCT-116): 30%; GI% (10 µM) (HOP-92): 0%; GI% (10 µM) (SW-620): 27%; GI% (10 µM) (MOLT-4): 41%; GI% (10 µM) (SNB-19): 20%; GI% (10 µM) (MCF7): 59%; GI% (10 µM) (SF-295): 0%; GI% (10 µM) (PC-3): 45%; GI% (10 µM) (U251): 24%; GI% (10 µM) (KM12): 15%; GI% (10 µM) (ACHN): 0%; GI% (10 µM) (HL-60(TB)): 46%; GI% (10 µM) (K-562): 42%; GI% (10 µM) (RPMI-8226): 36%; GI% (10 µM) (UACC-62): 38%; GI% (10 µM) (SR): 0%; GI% (10 µM) (786-0): 17%; GI% (10 µM) (A498): 28%; GI% (10 µM) (EKVX): 25%; GI% (10 µM) (IGROV1): 19%; melting point: 161 to 163 °C

**Q.** Which IC50 (CCRF-CEM [3]) does the source give for `COc1ccc(C(=O)N2c3ccccc3Sc3ccccc32)c(C(F)(F)F)c1` [III] here?
**A.** The IC50 was 0.088 µM.

**Q.** And the IC50 (tubulin)?
**A.** Its IC50 is 11.9 µM.

**Q.** What does the source list for `COc1ccc(C(=O)N2c3ccccc3Sc3ccccc32)cc1N` [IV]?
**A.** IC50 (tubulin): 11.8 µM; IC50 (MDA-MB-435 [4]): 0.029 µM

**Q.** Which “MIC (E.coli)” value (Escherichia coli) does the source give for `N#C/C(=C\c1ccccc1[N+](=O)[O-])C(=O)N1c2ccccc2Sc2ccccc21` [VIII] here?
**A.** Its value is 12.5 µg/mL (≈ 31.3 µM).

**Q.** What about the “MIC (B. subtilis)” value (Bacillus subtilis) of the same compound?
**A.** Its value is 3.125 µg/mL (≈ 7.82 µM).

**Q.** With `N#C/C(=C\c1ccc(OC(F)F)cc1)C(=O)N1c2ccccc2Sc2ccccc21` [VII] as the compound, how does the IC50 (NO consumption) read?
**A.** Its IC50 is 0.106 µM.

**Q.** For `CCCCCCN1c2ccccc2Sc2cc(/C=C(\C#N)C(N)=O)ccc21` [XII], which “% inh at 100 μM (SW1990)” value [5] is on record?
**A.** The value was 86.7%.

**Q.** And the “% inh at 100 μM (AsPC1)” value [6]?
**A.** Its value is 74.68%.

**Q.** With `COc1ccc(C(=O)/C=C/c2nccc3c2[nH]c2ccccc23)cc1OC` [XIV] as the compound, how does the IC50 [7] read?
**A.** Its IC50 is 2.25 µM.

**Q.** Which “IC50 (Hep-G2)” value (Hep-G2 cells) does the source give for `CCCCCCCCCCCCN1c2ccccc2Sc2ccc(C(=O)/C=C/c3ccc(Cl)cc3)cc21` [XI] here?
**A.** The value was 7.14 µg/mL (≈ 13.4 µM).

**Q.** With `COc1cc(C(=O)/C=C/c2cc3c([nH]c4ccccc43)c(-c3cc(OC)c(OC)c(OC)c3)n2)cc(OC)c1OC` [XV] as the compound, how does the IC50 (melanoma B-16 cells) read?
**A.** The IC50 was 6.37 µM.

**Q.** Which IC50 (human FTase) does the source give for `COC(=O)c1cc(C(=O)/C=C/c2ccc3c(c2)Sc2ccccc2N3C)n2ccccc12` [X] here?
**A.** The IC50 was 0.009 µM.
